Data taken from US20100152259A1 (Merck & Co Inc., priority 2006, published 2010).

test system: rabbit aortic slices; test: vessel relaxation assay (tissue-based, rabbit aortic slices); assay type: cell-based; conditions: Oryctolagus cuniculus

SMILES | EC50
CCCCc1nc(Cl)c(C(=O)OC(C)OC(=O)OCCCC[C@H](CO[N+](=O)[O-])O[N+](=O)[O-])n1Cc1ccc(-c2ccccc2-c2nn[nH]n2)cc1 (single isomer, unassigned) [Compound 2] | 1000 nM
CCCCc1nc(Cl)c(C(=O)OCCOCCO[N+](=O)[O-])n1Cc1ccc(-c2ccccc2-c2nn[nH]n2)cc1 [Compound 1, reference compound] | 6000 nM
CCCCc1nc(Cl)c(C(=O)OC(C)OC(=O)OCCOCC(CO[N+](=O)[O-])O[N+](=O)[O-])n1Cc1ccc(-c2ccccc2-c2nnn[nH]2)cc1 (stereo not drawn) [Compound 3] | 5000 nM
CCCCc1nc(Cl)c(C(=O)OC(C)OC(=O)OCCC(C)(C)CC(CO[N+](=O)[O-])O[N+](=O)[O-])n1Cc1ccc(-c2ccccc2-c2nnn[nH]2)cc1 (stereo not drawn) [Example 4, 1-[({[3,3-dimethyl-5,6-bis(nitrooxy)hexyl]oxy}carbonyl)oxy]ethyl 2-butyl-4-chloro-1-{[2′-(1H-tetrazol-5-yl)biphenyl-4-yl]methyl}-1H-imidazole-5-carboxylate] | 1100 nM
CCOc1nc2cccc(C(=O)OC(C)(C)OC(=O)OCCCCC(CO[N+](=O)[O-])O[N+](=O)[O-])c2n1Cc1ccc(-c2ccccc2-c2nnn[nH]2)cc1 (stereo not drawn) [Example 8, 1-[({[5,6-bis(nitrooxy)hexyl]oxy}carbonyl)oxy]-1-methylethyl 2-ethoxy-1-{[2′-(1H-tetrazol-5-yl)biphenyl-4-yl]methyl}-1H-benzimidazole-7-carboxylate] | 370 nM
CCOc1nc2cccc(C(=O)OC(C)(C)OC(=O)OCCCC[C@H](CO[N+](=O)[O-])O[N+](=O)[O-])c2n1Cc1ccc(-c2ccccc2-c2nnn[nH]2)cc1 [Example 9, 1-[({[(5R)-5,6-bis(nitrooxy)hexyl]oxy}carbonyl)oxy]-1-methylethyl 2-ethoxy-1-{[2′-(1H-tetrazol-5-yl)biphenyl-4-yl]methy}-1H-benzimidazole-7-carboxylate] | 990 nM
CCOc1nc2cccc(C(=O)OC(C)(C)OC(=O)OCCOCC(CO[N+](=O)[O-])O[N+](=O)[O-])c2n1Cc1ccc(-c2ccccc2-c2nnn[nH]2)cc1 (stereo not drawn) [Example 10] | 2380 nM
CCOc1nc2cccc(C(=O)OC(C)(C)OC(=O)OCCOC[C@H](CO[N+](=O)[O-])O[N+](=O)[O-])c2n1Cc1ccc(-c2ccccc2-c2nnn[nH]2)cc1 [Example 11, 1-{[(2-{[(2R)-2,3-bis(nitrooxy)propyl]oxy}ethoxy)carbonyl]oxy}-1-methylethyl 2-ethoxy-1-{[2′-(1H-tetrazol-5-yl)biphenyl-4-yl]methyl}-1H-benzimidazole-7-carboxylate] | 2300 nM
CCOc1nc2cccc(C(=O)OC(C)(C)OC(=O)OCC[C@@H](CO[N+](=O)[O-])O[N+](=O)[O-])c2n1Cc1ccc(-c2ccccc2-c2nnn[nH]2)cc1 [Example 12, 1-[({[(3S)-3,4-bis(nitrooxy)butyl]oxy}carbonyl)oxy]-1-methylethyl 2-ethoxy-1-{[2′-(1H-tetrazol-5-yl)biphenyl-4-yl]methyl}-1H-benzimidazole-7-carboxylate] | 3730 nM
